Test results taken from patent US9533975B2, “Dual-action, unnatural proline-rich peptides as antibiotic agents and methods thereof” (Purdue Research Foundation, priority 2014, dated 2017).

Tests used:
[1] = test system: human red blood cells (hRBCs); settings: at 5 'LIM
in vitro = settings: human

CC[C@H](C)[C@H](NC(=O)CN)C(=O)NCC(=O)N[C@@H](C)C(=O)N[C@H](C(=O)N[C@@H](CC(C)C)C(=O)N[C@@H](CCCCN)C(=O)N[C@H](C(=O)N[C@@H](CC(C)C)C(=O)N[C@H](C(=O)N[C@H](C(=O)NCC(=O)N[C@@H](CC(C)C)C(=O)N1CCC[C@H]1C(=O)N[C@@H](C)C(=O)N[C@@H](CC(C)C)C(=O)N[C@H](C(=O)N[C@@H](CO)C(=O)N[C@@H](Cc1c[nH]c2ccccc12)C(=O)N[C@H](C(=O)N[C@@H](CCCCN)C(=O)N[C@@H](CCCNC(=N)N)C(=O)N[C@@H](CCCCN)C(=O)N[C@@H](CCCNC(=N)N)C(=O)N[C@@H](CCC(N)=O)C(=O)N[C@@H](CCC(N)=O)C(N)=O)[C@@H](C)CC)[C@@H](C)CC)[C@@H](C)O)[C@@H](C)O)C(C)C)C(C)C [Melittin]
hemolytic activity [1]: highly hemolytic
hemolysis at 5 µM (in vitro): > 80%
